{"source": "patent EP4635500A1", "about": "“THERAPEUTIC AGENT FOR BACTERIAL INFECTION” (Sumitomo Pharma Co., Ltd., priority 2022, dated 2024)", "system": "Enterobacterales", "experiment": "MIC, broth microdilution, CDC/FDA Antibiotic Resistance Isolate Bank (Example 7, Tables 8, 11, 12)", "assay_type": "cell-based", "conditions": "read-out: MIC", "note": "Like-named read-outs stand apart in the source and are kept apart here.", "data": [{"smiles": "C[C@H]1COc2c(N3CCN(C)CC3)c(F)cc3c(=O)c(C(=O)O)cn1c23", "note": "[Levofloxacin, levofloxacin]", "values": [{"measurement": "MIC", "setting": "Citrobacter freundii, KUB No. 5654, AR Bank # 157", "value": "> 64", "unit": "µg/mL"}, {"measurement": "MIC", "setting": "Enterobacter cloacae, Enterobacter cloacae KUB No. 5792, AR Bank #448", "value": "> 64", "unit": "µg/mL"}, {"measurement": "MIC", "setting": "Enterobacter cloacae, Enterobacter cloacae KUB No. 5807, AR Bank #501", "value": 1, "unit": "µg/mL"}, {"measurement": "MIC", "setting": "Enterobacter cloacae, Enterobacter cloacae KUB No. 5808, AR Bank #502", "value": 8, "unit": "µg/mL"}, {"measurement": "MIC", "setting": "Enterobacter cloacae, Enterobacter cloacae complex, KUB No. 5661, AR Bank # 164", "value": 0.12, "unit": "µg/mL"}, {"measurement": "MIC", "setting": "Enterobacter cloacae, Enterobacter cloacae group, KUB No. 5629, AR Bank # 132", "value": 0.06, "unit": "µg/mL"}, {"measurement": "MIC", "setting": "Enterobacter cloacae, KUB No. 5529, AR Bank# 32", "value": 1, "unit": "µg/mL"}, {"measurement": "MIC", "setting": "Enterobacter cloacae, KUB No. 5535, AR Bank# 38", "value": 64, "unit": "µg/mL"}, {"measurement": "MIC", "setting": "Enterobacter cloacae, KUB No. 5547, AR Bank# 50", "value": 8, "unit": "µg/mL"}, {"measurement": "MIC", "setting": "Enterobacter cloacae, KUB No. 5550, AR Bank# 53", "value": 32, "unit": "µg/mL"}, {"measurement": "MIC", "setting": "Enterobacter cloacae, KUB No. 5557, AR Bank# 60", "value": 0.06, "unit": "µg/mL"}, {"measurement": "MIC", "setting": "Enterobacter cloacae, KUB No. 5660, AR Bank # 163", "value": 32, "unit": "µg/mL"}, {"measurement": "MIC", "setting": "Enterobacter cloacae, KUB No. 5761, AR Bank # 365", "value": 4, "unit": "µg/mL"}, {"measurement": "MIC", "setting": "Enterobacter cloacae, KUB No. 5762, AR Bank # 366", "value": 0.5, "unit": "µg/mL"}, {"measurement": "MIC", "setting": "Enterobacter cloacae, KUB No. 5763, AR Bank # 367", "value": 1, "unit": "µg/mL"}, {"measurement": "MIC", "setting": "Enterobacter cloacae, KUB No. 5778, AR Bank # 432", "value": 0.12, "unit": "µg/mL"}, {"measurement": "MIC", "setting": "Enterobacter cloaccae, KUB No. 5651, AR Bank # 154", "value": 1, "unit": "µg/mL"}, {"measurement": "MIC", "setting": "Enterobacter clooreae, KUB No. 5633, AR Bank # 136", "value": 16, "unit": "µg/mL"}, {"measurement": "MIC", "setting": "Escherichia coli, Escherichia coli KUB No. 5783, AR Bank #437", "value": 32, "unit": "µg/mL"}, {"measurement": "MIC", "setting": "Escherichia coli, Escherichia coli KUB No. 5794, AR Bank #450", "value": 0.12, "unit": "µg/mL"}, {"measurement": "MIC", "setting": "Escherichia coli, Escherichia coli KUB No. 5795, AR Bank #451", "value": 32, "unit": "µg/mL"}, {"measurement": "MIC", "setting": "Escherichia coli, Escherichia coli KUB No. 5796, AR Bank #452", "value": 64, "unit": "µg/mL"}, {"measurement": "MIC", "setting": "Escherichia coli, Escherichia coli KUB No. 5803, AR Bank #861", "value": 16, "unit": "µg/mL"}, {"measurement": "MIC", "setting": "Escherichia coli, KUB No. 5601, AR Bank # 104", "value": 16, "unit": "µg/mL"}, {"measurement": "MIC", "setting": "Escherichia coli, KUB No. 5611, AR Bank # 114", "value": 32, "unit": "µg/mL"}, {"measurement": "MIC", "setting": "Escherichia coli, KUB No. 5615, AR Bank # 118", "value": 32, "unit": "µg/mL"}, {"measurement": "MIC", "setting": "Escherichia coli, KUB No. 5616, AR Bank # 119", "value": 32, "unit": "µg/mL"}, {"measurement": "MIC", "setting": "Escherichia coli, KUB No. 5625, AR Bank # 128", "value": 32, "unit": "µg/mL"}, {"measurement": "MIC", "setting": "Escherichia coli, KUB No. 5634, AR Bank # 137", "value": 64, "unit": "µg/mL"}, {"measurement": "MIC", "setting": "Escherichia coli, KUB No. 5646, AR Bank # 149", "value": 8, "unit": "µg/mL"}, {"measurement": "MIC", "setting": "Escherichia coli, KUB No. 5647, AR Bank # 150", "value": 32, "unit": "µg/mL"}, {"measurement": "MIC", "setting": "Escherichia coli, KUB No. 5648, AR Bank # 151", "value": 32, "unit": "µg/mL"}, {"measurement": "MIC", "setting": "Escherichia coli, KUB No. 5659, AR Bank # 162", "value": 32, "unit": "µg/mL"}, {"measurement": "MIC", "setting": "Escherichia coli, KUB No. 5764, AR Bank # 368", "value": 0.06, "unit": "µg/mL"}, {"measurement": "MIC", "setting": "Escherichia coli, KUB No. 5765, AR Bank # 369", "value": 0.06, "unit": "µg/mL"}, {"measurement": "MIC", "setting": "Escherichia coli, KUB No. 5766, AR Bank # 370", "value": 16, "unit": "µg/mL"}, {"measurement": "MIC", "setting": "Escherichia coli, KUB No. 5767, AR Bank # 371", "value": 16, "unit": "µg/mL"}, {"measurement": "MIC", "setting": "Escherichia coli, KUB No. 5768, AR Bank # 372", "value": 16, "unit": "µg/mL"}, {"measurement": "MIC", "setting": "Escherichia coli, KUB No. 5769, AR Bank # 373", "value": 32, "unit": "µg/mL"}, {"measurement": "MIC", "setting": "Escherichia coli, KUB No. 5770, AR Bank # 374", "value": 32, "unit": "µg/mL"}, {"measurement": "MIC", "setting": "Escherichia coli, KUB No. 5774, AR Bank # 378", "value": 8, "unit": "µg/mL"}, {"measurement": "MIC", "setting": "Escherichia coli, KUB No. 5779, AR Bank # 433", "value": 32, "unit": "µg/mL"}, {"measurement": "MIC", "setting": "Escherichia coli, KUB No. 5780, AR Bank # 434", "value": 16, "unit": "µg/mL"}, {"measurement": "MIC", "setting": "Escherichia coli, KUB No. 5781, AR Bank # 435", "value": 32, "unit": "µg/mL"}, {"measurement": "MIC", "setting": "Escherichia, KUB No. 57, AR Bank # 436 (row cut off)", "value": 32, "unit": "µg/mL"}, {"measurement": "MIC", "setting": "Klebsiella aerogenes, Enterobacter aerogenes, KUB No. 5658, AR Bank # 161", "value": 0.12, "unit": "µg/mL"}, {"measurement": "MIC", "setting": "Klebsiella aerogenes, Enterobacter aerogenes, KUB No. 5777, AR Bank # 431", "value": 1, "unit": "µg/mL"}, {"measurement": "MIC", "setting": "Klebsiella oxytoca, KUB No. 5644, AR Bank # 147", "value": 0.06, "unit": "µg/mL"}, {"measurement": "MIC", "setting": "Klebsiella oxytoca, KUB No. 5771, AR Bank # 375", "value": 0.12, "unit": "µg/mL"}, {"measurement": "MIC", "setting": "Klebsiella oxytoca, KUB No. 5776, AR Bank # 380", "value": 0.5, "unit": "µg/mL"}, {"measurement": "MIC", "setting": "Klebsiella ozaenae, KUB No. 5548, AR Bank# 51", "value": 16, "unit": "µg/mL"}, {"measurement": "MIC", "setting": "Klebsiella pnemnonine, KUB No. 5758, AR Bank # 362", "value": 64, "unit": "µg/mL"}, {"measurement": "MIC", "setting": "Klebsiella pneumoniae, KUB No. 55, AR Bank# 47", "value": 64, "unit": "µg/mL"}, {"measurement": "MIC", "setting": "Klebsiella pneumoniae, KUB No. 5531, AR Bank# 34", "value": 0.5, "unit": "µg/mL"}, {"measurement": "MIC", "setting": "Klebsiella pneumoniae, KUB No. 5536, AR Bank# 39", "value": 8, "unit": "µg/mL"}, {"measurement": "MIC", "setting": "Klebsiella pneumoniae, KUB No. 5537, AR Bank# 40", "value": 32, "unit": "µg/mL"}, {"measurement": "MIC", "setting": "Klebsiella pneumoniae, KUB No. 5538, AR Bank# 41", "value": 8, "unit": "µg/mL"}, {"measurement": "MIC", "setting": "Klebsiella pneumoniae, KUB No. 5540, AR Bank# 43", "value": 2, "unit": "µg/mL"}, {"measurement": "MIC", "setting": "Klebsiella pneumoniae, KUB No. 5541, AR Bank# 44", "value": 8, "unit": "µg/mL"}, {"measurement": "MIC", "setting": "Klebsiella pneumoniae, KUB No. 5543, AR Bank# 46", "value": 32, "unit": "µg/mL"}, {"measurement": "MIC", "setting": "Klebsiella pneumoniae, KUB No. 5546, AR Bank# 49", "value": "> 64", "unit": "µg/mL"}, {"measurement": "MIC", "setting": "Klebsiella pneumoniae, KUB No. 5603, AR Bank # 106", "value": "> 64", "unit": "µg/mL"}, {"measurement": "MIC", "setting": "Klebsiella pneumoniae, KUB No. 5604, AR Bank # 107", "value": 64, "unit": "µg/mL"}, {"measurement": "MIC", "setting": "Klebsiella pneumoniae, KUB No. 5606, AR Bank # 109", "value": "> 64", "unit": "µg/mL"}, {"measurement": "MIC", "setting": "Klebsiella pneumoniae, KUB No. 5609, AR Bank # 112", "value": 16, "unit": "µg/mL"}, {"measurement": "MIC", "setting": "Klebsiella pneumoniae, KUB No. 5610, AR Bank # 113", "value": 16, "unit": "µg/mL"}, {"measurement": "MIC", "setting": "Klebsiella pneumoniae, KUB No. 5612, AR Bank # 115", "value": 32, "unit": "µg/mL"}, {"measurement": "MIC", "setting": "Klebsiella pneumoniae, KUB No. 5614, AR Bank # 117", "value": 4, "unit": "µg/mL"}, {"measurement": "MIC", "setting": "Klebsiella pneumoniae, KUB No. 5617, AR Bank # 120", "value": 64, "unit": "µg/mL"}, {"measurement": "MIC", "setting": "Klebsiella pneumoniae, KUB No. 5622, AR Bank # 125", "value": 64, "unit": "µg/mL"}, {"measurement": "MIC", "setting": "Klebsiella pneumoniae, KUB No. 5623, AR Bank # 126", "value": 0.12, "unit": "µg/mL"}, {"measurement": "MIC", "setting": "Klebsiella pneumoniae, KUB No. 5626, AR Bank # 129", "value": 64, "unit": "µg/mL"}, {"measurement": "MIC", "setting": "Klebsiella pneumoniae, KUB No. 5632, AR Bank # 135", "value": 64, "unit": "µg/mL"}, {"measurement": "MIC", "setting": "Klebsiella pneumoniae, KUB No. 5635, AR Bank # 138", "value": "> 64", "unit": "µg/mL"}, {"measurement": "MIC", "setting": "Klebsiella pneumoniae, KUB No. 5636, AR Bank # 139", "value": 8, "unit": "µg/mL"}, {"measurement": "MIC", "setting": "Klebsiella pneumoniae, KUB No. 5637, AR Bank # 140", "value": 16, "unit": "µg/mL"}, {"measurement": "MIC", "setting": "Klebsiella pneumoniae, KUB No. 5638, AR Bank # 141", "value": 8, "unit": "µg/mL"}, {"measurement": "MIC", "setting": "Klebsiella pneumoniae, KUB No. 5639, AR Bank # 142", "value": 8, "unit": "µg/mL"}]}]}
